Measured values reported in EP0560267B1, “Isosteric antiherpes peptide derivatives” (BOEHRINGER INGELHEIM (CANADA) LTD., priority 1992, dated 1993).
Like-named read-outs stand apart in the source and are kept apart here.

Legend:
[1] = target: T1, HSV-1 ribonucleotide reductase (Human herpesvirus 1, UniProt P08543); assay: Inhibition of Herpes Simplex Virus (HSV-1) ribonucleotide reductase; type: biochemical; details: assay of example 10
T1 construct: HSV-1 ribonucleotide reductase (partially purified) was obtained from quiescent BHK-21/C13 cells infected with strain F HSV-1 virus; made in house; host or cells: quiescent BHK-21/C13 cells infected with HSV-1 strain F (virus-encoded enzyme, partially purified)
T1 sequence (P08543 whole entry): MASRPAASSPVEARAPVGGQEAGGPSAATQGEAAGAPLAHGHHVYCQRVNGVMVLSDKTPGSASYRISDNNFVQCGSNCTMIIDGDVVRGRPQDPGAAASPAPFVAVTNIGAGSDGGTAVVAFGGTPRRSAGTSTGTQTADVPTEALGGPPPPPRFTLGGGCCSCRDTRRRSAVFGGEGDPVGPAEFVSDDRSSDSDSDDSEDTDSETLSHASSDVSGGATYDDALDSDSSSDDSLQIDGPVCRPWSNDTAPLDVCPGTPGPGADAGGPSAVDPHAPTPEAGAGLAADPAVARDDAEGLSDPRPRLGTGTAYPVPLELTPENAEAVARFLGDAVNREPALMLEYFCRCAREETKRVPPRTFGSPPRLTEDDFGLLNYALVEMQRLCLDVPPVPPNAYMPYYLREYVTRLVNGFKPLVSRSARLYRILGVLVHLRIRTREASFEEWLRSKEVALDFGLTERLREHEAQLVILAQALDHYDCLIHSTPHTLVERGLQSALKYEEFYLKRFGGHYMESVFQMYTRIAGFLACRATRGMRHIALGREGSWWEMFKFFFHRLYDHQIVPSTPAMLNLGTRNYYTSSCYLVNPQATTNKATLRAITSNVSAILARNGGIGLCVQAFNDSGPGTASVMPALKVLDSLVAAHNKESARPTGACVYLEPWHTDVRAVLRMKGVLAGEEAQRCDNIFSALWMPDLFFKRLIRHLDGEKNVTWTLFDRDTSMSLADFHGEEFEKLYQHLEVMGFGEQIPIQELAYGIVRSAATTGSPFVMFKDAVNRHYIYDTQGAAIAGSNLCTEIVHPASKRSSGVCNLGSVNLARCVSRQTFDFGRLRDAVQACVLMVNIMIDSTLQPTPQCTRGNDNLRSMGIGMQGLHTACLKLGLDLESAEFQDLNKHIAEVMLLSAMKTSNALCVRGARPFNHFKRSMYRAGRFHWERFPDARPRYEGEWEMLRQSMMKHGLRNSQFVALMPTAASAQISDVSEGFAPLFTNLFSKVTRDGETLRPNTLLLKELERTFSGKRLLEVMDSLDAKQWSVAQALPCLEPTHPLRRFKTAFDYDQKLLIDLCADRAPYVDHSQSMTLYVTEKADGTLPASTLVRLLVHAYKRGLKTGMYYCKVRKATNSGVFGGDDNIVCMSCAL
How it was run: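 Partially purified enzyme from quiescent BHK-21/C13 cells infected with HSV-1 strain F at 10 PFU/cell, used at constant units per assay. IC50 taken as concentration giving 50% of maximal inhibition versus no-compound control; mean of four assays.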

[2] = test system: HSV-2; assay: Inhibition of Herpes Simplex Virus (HSV-2) replication in cell culture; type: cell-based
How it was run: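 Serum-starved BHK-21/C13 cells infected with HSV-2 strain HG-52 (MOI 0.02 PFU/cell), then exposed to compound in BBMT medium for 29 h at 37°. Progeny virus titrated on fresh BHK-21/C13 cells by neutral red viability read at 540; EC50 as concentration halving virus replication.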

[3] = Table IV, cell culture assay of example 11, read-out: EC50

Compound | IC50 ([1]; Table V) [µM] | EC50 ([2]; Human alphaherpesvirus 2) [µM] | EC50 ([2]; Human alphaherpesvirus 2, Table V, cell culture assay of example 11) [µM] | IC50 ([1]; Table IV) [µM] | EC50 [2, 3] [µM]
CCCC(CCC)NC(=O)NC(C(=O)CC(CC(=O)C1CCCCC1)C(=O)NC(C(=O)NCC(C)(C)C)C1(C(=O)O)CCCC1)C(C)(C)C [Pr2CHNHC(O)-Tbg-CH2-(R)-CH{CH2-C(O)-(cyclohexyl)}C(O)-Asp(cyPn)-NHCH2CMe3] | 0.37 | 61 |  |  | 
CCCC(CCC)NC(=O)NC(C(=O)CC(CC(=O)C(C)(C)C)C(=O)NC(C(=O)NC(C)C(C)(C)C)C1(C(=O)O)CCCC1)C(C)C [Pr2CHNHC(O)-Val-CH2-(R)-CH(CH2-C(O)CMe3)C(O)-Asp(cyPn)-NH-(R)-CH(Me)CMe3] | 0.22 |  | 37 |  | 
EtPr2CHNHC(O)-Tbg-CH2-(R)-CH(CH2C(O)CMe3)C(O)-Asp(cyPn)-NHCH2CHEt2 [EtPr2CHNHC(O) / NHCH2CHEt2] |  |  |  | 0.41 | 42
Me(CH2=CH-CH2)2CNHC(O)-Tbg-CH2-(R)-CH(CH2C(O)CMe3)C(O)-Asp(cyPn)-NHCH2CMe3 [Me(CH2=CHCH2)2-CNHC(O) / NHCH2CMe3] |  |  |  | 0.27 | 30
